Reference: patent US12552783B2, “Modulators of proteolysis and associated methods of use” (Arvinas Operations, Inc., priority 2018, dated 2026)

Biological target: KRas (Homo sapiens, UniProt P01116, G12C)
Assay: KRas degradation in NCI-H2030 cells by Western blot, normalized to GAPDH (data of Table 14)
Type: cell-based
Set-up: host or cells: NCI-H2030
Conditions: for Percent Degradation at Indicated Concentration (μM): H2030; for Dmax: NCI-H2030
In short: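 After a day without serum, the G12C-homozygous cells received each compound at 0.3, 1 and 3 μM, with VHL-based degraders left for 24 h and other compounds for 72 h. DC50 is the concentration giving half-maximal degradation and DMax the maximal degradation, both taken from KRas levels normalized to GAPDH.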

Row | Structure (SMILES) | Percent Degradation at Indicated Concentration (μM) (0.3 μM) | Percent Degradation at Indicated Concentration (μM) (1 μM) | Percent Degradation at Indicated Concentration (μM) (3 μM) | Dmax | Percent Degradation at Indicated Concentration (μM): 0.3 (H2030 cells, 0.3 μM) | Percent Degradation at Indicated Concentration (μM): 1 (H2030 cells, 1 μM) | Percent Degradation at Indicated Concentration (μM): 3 (H2030 cells, 3 μM) | Dmax (H2030 cells)
1 | C=CC(=O)N1CCN(c2nc(NCCC(=O)N(C)CCOCCOCCOCCOCCNC(=O)c3ccc(NC(=O)[C@@H]4N[C@@H](CC(C)(C)C)[C@](C#N)(c5ccc(Cl)cc5F)[C@H]4c4cccc(Cl)c4F)c(OC)c3)nc3c(F)c(-c4cc(O)cc5ccccc45)c(Cl)cc23)CC1 [compound 304, (2R,3S,4R,5S)-N-(4-((18-((4-(4-acryloylpiperazin-1-yl)-6-chloro-8-fluoro-7-(3-hydroxynaphthalen-1-yl)quinazolin-2-yl)amino)-15-methyl-16-oxo-3,6,9,12-tetraoxa-15-azaoctadecyl)carbamoyl)-2-methoxyphenyl)-3-(3-chloro-2-fluorophenyl)-4-(4-chloro-2-fluorophenyl)-4-cyano-5-neopentylpyrrolidine-2-carboxamide] | C (Percent Degradation: C ≤ 35) | C (Percent Degradation: C ≤ 35) | C (Percent Degradation: C ≤ 35) | ≤ 35% |  |  |  | 
2 | CCC(=O)N1CCN(c2nc(NCCC(=O)N(C)CCOCCOCCOCCOCCOc3cc(-c4scnc4C)ccc3CNC(=O)[C@@H]3C[C@@H](O)CN3C(=O)C(c3cc(C)no3)C(C)C)nc3c(F)c(-c4cc(O)cc5ccccc45)c(Cl)cc23)CC1 (stereo partly drawn) [compound 336, (2S,4R)-N-(2-((18-((6-chloro-8-fluoro-7-(3-hydroxynaphthalen-1-yl)-4-(4-propionylpiperazin-1-yl)quinazolin-2-yl)amino)-15-methyl-16-oxo-3,6,9,12-tetraoxa-15-azaoctadecyl)oxy)-4-(4-methylthiazol-5-yl)benzyl)-4-hydroxy-1-(3-methyl-2-(3-methylisoxazol-5-yl)butanoyl)pyrrolidine-2-carboxamide] |  |  |  |  | C (C ≤ 35) | C (C ≤ 35) | C (C ≤ 35) | ≤ 35%
3 | C=CC(=O)N1CCN(c2nc(NCCC(=O)N(C)CCOc3cc(-c4scnc4C)ccc3CNC(=O)[C@@H]3C[C@@H](O)CN3C(=O)[C@@H](c3cc(C)no3)C(C)C)nc3c(F)c(-c4cc(O)cc5ccccc45)c(Cl)cc23)CC1 [compound 337] | C (Percent Degradation: C ≤ 35) | C (Percent Degradation: C ≤ 35) | C (Percent Degradation: C ≤ 35) | ≤ 35% |  |  |  | 
4 | C=CC(=O)N1CCN(c2nc(NCCC(=O)N(C)CCOc3cc(-c4scnc4C)ccc3CNC(=O)[C@@H]3C[C@@H](O)CN3C(=O)[C@H](c3cc(C)no3)C(C)C)nc3c(F)c(-c4cc(O)cc5ccccc45)c(Cl)cc23)CC1 [compound 338, (2S,4R)-N-(2-(2-(3-((4-(4-acryloylpiperazin-1-yl)-6-chloro-8-fluoro-7-(3-hydroxynaphthalen-1-yl)quinazolin-2-yl)amino)-N-methylpropanamido)ethoxy)-4-(4-methylthiazol-5-yl)benzyl)-4-hydroxy-1-((S)-3-methyl-2-(3-methylisoxazol-5-yl)butanoyl)pyrrolidine-2-carboxamide] | C (Percent Degradation: C ≤ 35) | C (Percent Degradation: C ≤ 35) | C (Percent Degradation: C ≤ 35) | ≤ 35% |  |  |  | 
5 | C=CC(=O)N1CCN(c2nc(NCCC(=O)N(C)CCOCCOc3cc(-c4scnc4C)ccc3CNC(=O)[C@@H]3C[C@@H](O)CN3C(=O)[C@@H](c3cc(C)no3)C(C)C)nc3c(F)c(-c4cc(O)cc5ccccc45)c(Cl)cc23)CC1 [compound 339] |  |  |  |  | C (C ≤ 35) | C (C ≤ 35) | C (C ≤ 35) | ≤ 35%
6 | C=CC(=O)N1CCN(c2nc(NCCC(=O)N(C)CCOCCOc3cc(-c4scnc4C)ccc3CNC(=O)[C@@H]3C[C@@H](O)CN3C(=O)[C@H](c3cc(C)no3)C(C)C)nc3c(F)c(-c4cc(O)cc5ccccc45)c(Cl)cc23)CC1 [compound 340, (2S,4R)-N-(2-(2-(2-(3-((4-(4-acryloylpiperazin-1-yl)-6-chloro-8-fluoro-7-(3-hydroxynaphthalen-1-yl)quinazolin-2-yl)amino)-N-methylpropanamido)ethoxy)ethoxy)-4-(4-methylthiazol-5-yl)benzyl)-4-hydroxy-1-((S)-3-methyl-2-(3-methylisoxazol-5-yl)butanoyl)pyrrolidine-2-carboxamide] |  |  |  |  | C (C ≤ 35) | C (C ≤ 35) | C (C ≤ 35) | ≤ 35%

Other lines, results leading:

Row | Percent Degradation at Indicated Concentration (μM) (0.3 μM) | Percent Degradation at Indicated Concentration (μM) (1 μM) | Percent Degradation at Indicated Concentration (μM) (3 μM) | Dmax | Percent Degradation at Indicated Concentration (μM): 0.3 (H2030 cells, 0.3 μM) | Percent Degradation at Indicated Concentration (μM): 1 (H2030 cells, 1 μM) | Percent Degradation at Indicated Concentration (μM): 3 (H2030 cells, 3 μM) | Dmax (H2030 cells) | Structure (SMILES)
7 |  |  |  |  | C (C ≤ 35) | C (C ≤ 35) | C (C ≤ 35) | ≤ 35% | CCC(=O)N1CCN(c2nc(NCCC(=O)N(C)CCOCCOc3cc(-c4scnc4C)ccc3CNC(=O)[C@@H]3C[C@@H](O)CN3C(=O)[C@@H](c3cc(C)no3)C(C)C)nc3c(F)c(-c4cc(O)cc5ccccc45)c(Cl)cc23)CC1 [compound 330, (2S,4R)-N-(2-(2-(2-(3-((6-chloro-8-fluoro-7-(3-hydroxynaphthalen-1-yl)-4-(4-propionylpiperazin-1-yl)quinazolin-2-yl)amino)-N-methylpropanamido)ethoxy)ethoxy)-4-(4-methylthiazol-5-yl)benzyl)-4-hydroxy-1-((R)-3-methyl-2-(3-methylisoxazol-5-yl)butanoyl)pyrrolidine-2-carboxamide]
8 |  |  |  |  | C (C ≤ 35) | C (C ≤ 35) | C (C ≤ 35) | ≤ 35% | CCC(=O)N1CCN(c2nc(NCCC(=O)N(C)CCOCCOc3cc(-c4scnc4C)ccc3CNC(=O)[C@@H]3C[C@@H](O)CN3C(=O)[C@H](c3cc(C)no3)C(C)C)nc3c(F)c(-c4cc(O)cc5ccccc45)c(Cl)cc23)CC1 [compound 331, (2S,4R)-N-(2-(2-(2-(3-((6-chloro-8-fluoro-7-(3-hydroxynaphthalen-1-yl)-4-(4-propionylpiperazin-1-yl)quinazolin-2-yl)amino)-N-methylpropanamido)ethoxy)ethoxy)-4-(4-methylthiazol-5-yl)benzyl)-4-hydroxy-1-((S)-3-methyl-2-(3-methylisoxazol-5-yl)butanoyl)pyrrolidine-2-carboxamide]
9 |  |  |  |  | C (C ≤ 35) | C (C ≤ 35) | C (C ≤ 35) | ≤ 35% | CCC(=O)N1CCN(c2nc(NCCC(=O)N(C)CCOCCOCCOc3cc(-c4scnc4C)ccc3CNC(=O)[C@@H]3C[C@@H](O)CN3C(=O)[C@@H](c3cc(C)no3)C(C)C)nc3c(F)c(-c4cc(O)cc5ccccc45)c(Cl)cc23)CC1 [compound 332, (2S,4R)-N-(2-(2-(2-(2-(3-((6-chloro-8-fluoro-7-(3-hydroxynaphthalen-1-yl)-4-(4-propionylpiperazin-1-yl)quinazolin-2-yl)amino)-N-methylpropanamido)ethoxy)ethoxy)-ethoxy)-4-(4-methylthiazol-5-yl)benzyl)-4-hydroxy-1-((R)-3-methyl-2-(3-methylisoxazol-5-yl)butanoyl)pyrrolidine-2-carboxamide]
10 |  |  |  |  | C (C ≤ 35) | C (C ≤ 35) | C (C ≤ 35) | ≤ 35% | CCC(=O)N1CCN(c2nc(NCCC(=O)N(C)CCOCCOCCOc3cc(-c4scnc4C)ccc3CNC(=O)[C@@H]3C[C@@H](O)CN3C(=O)[C@H](c3cc(C)no3)C(C)C)nc3c(F)c(-c4cc(O)cc5ccccc45)c(Cl)cc23)CC1 [compound 333, (2S,4R)-N-(2-(2-(2-(2-(3-((6-chloro-8-fluoro-7-(3-hydroxynaphthalen-1-yl)-4-(4-propionylpiperazin-1-yl)quinazolin-2-yl)amino)-N-methylpropanamido)ethoxy)ethoxy)ethoxy)-4-(4-methylthiazol-5-yl)benzyl)-4-hydroxy-1-((S)-3-methyl-2-(3-methylisoxazol-5-yl)butanoyl)pyrrolidine-2-carboxamide]
11 |  |  |  |  | C (C ≤ 35) | C (C ≤ 35) | C (C ≤ 35) | ≤ 35% | CCC(=O)N1CCN(c2nc(NCCC(=O)N(C)CCOCCOCCOCCOc3cc(-c4scnc4C)ccc3CNC(=O)[C@@H]3C[C@@H](O)CN3C(=O)[C@@H](c3cc(C)no3)C(C)C)nc3c(F)c(-c4cc(O)cc5ccccc45)c(Cl)cc23)CC1 [compound 334, (2S,4R)-N-(2-((15-((6-chloro-8-fluoro-7-(3-hydroxynaphthalen-1-yl)-4-(4-propionylpiperazin-1-yl)quinazolin-2-yl)amino)-12-methyl-13-oxo-3,6,9-trioxa-12-azapentadecyl)oxy)-4-(4-methylthiazol-5-yl)benzyl)-4-hydroxy-1-((R)-3-methyl-2-(3-methylisoxazol-5-yl)butanoyl)pyrrolidine-2-carboxamide]
12 |  |  |  |  | C (C ≤ 35) | C (C ≤ 35) | C (C ≤ 35) | ≤ 35% | CCC(=O)N1CCN(c2nc(NCCC(=O)N(C)CCOCCOCCOCCOc3cc(-c4scnc4C)ccc3CNC(=O)[C@@H]3C[C@@H](O)CN3C(=O)[C@H](c3cc(C)no3)C(C)C)nc3c(F)c(-c4cc(O)cc5ccccc45)c(Cl)cc23)CC1 [compound 335, (2S,4R)-N-(2-((15-((6-chloro-8-fluoro-7-(3-hydroxynaphthalen-1-yl)-4-(4-propionylpiperazin-1-yl)quinazolin-2-yl)amino)-12-methyl-13-oxo-3,6,9-trioxa-12-azapentadecyl)oxy)-4-(4-methylthiazol-5-yl)benzyl)-4-hydroxy-1-((S)-3-methyl-2-(3-methylisoxazol-5-yl)butanoyl)pyrrolidine-2-carboxamide]
